Test results published in patent publication US6780995B2, “Activated iododerivatives for the treatment of cancer and aids” (Isotechnika Inc., priority 1997, dated 2004).
Where two headings read alike, the source gives them in different places.

Columns and labels:
[1] = system: MCF7 cells; assay: IC50 assay, inhibition of cell proliferation and growth, MCF7; assay type: cell-based, human; settings: MCF7 breast adenocarcinoma cell line, neutral red or crystal violet, read-out: IC50 Concentrations, MCF 7
Method: (§1) Cell culture: The human cell lines were propagated under sterile conditions in RPMI 1640 (CellGrow) with 10% fetal bovine serum (Hyclone), 2 mM L-glutamine, and sodium bicarbonate (complete medium) and incubated at 37° C. in HEPA-filtered Sterilcult CO2 tissue culture incubators (Forma) with 5% CO^2 and 95% humidity (Table 1). The murine leukemia cell lines were propagated in Dulbecco's MEM media with 10% equine serum (Hyclone), 2 mM L-glutamine, and sodium bicarbonate (complete medium) and incubated as described. The cells were subcultured twice weekly and used in experiments. The culture was screened for mycoplasma contamination using GeneProbe™ (Fisher) and positive cultures were cured of contaminants over three passages using constant treatment with BM-Cyclin™ antibiotic combination (Boehringer Mannheim). Only cultures confirmed as mycoplasma free were used in testing compounds for anticellular activity.
(§2) The test compounds were stored at 4° C. under light protected conditions. The test compounds were weighed and dissolved in DMSO. The dissolved compounds were then serially diluted in warm medium (RPMI 1640 or Dulbecco's MEM) under constant mixing to minimize precipitation. The positive control drug doxorubicin was diluted in water followed by dilution in media to achieve a final concentration of 200 nM.
(§3) For all experiments, the cells were harvested and centrifuged to remove the media, and suspended in fresh completed medium. Samples were taken to determine cell density. The cell count was determined with a Coulter Model Z1 cell counter and viability was measured with propidium iodide staining followed by analysis on a Coulter EPPICS Elite Flow cytometer. The cell samples sere adjusted with complete medium to a density of 5×10^4/mL for adherent cell lines and 1×10^5/mL for suspension lines. Tissue culture cluster plates (96 well, cat. No. 3595 Costar for adherent human lines and cat No. 25850 Corning for murine leukemias) were seeded with 100 μL cells and incubated as described. Replicate groups of plates were set up for each line to accommodate the exposure options for single agents and combinations. For each dilution 8 wells (100 μL samples of cells) were treated with 100 μL of dosing solution one day after plating. Each cluster plate contained a cell control (8 wells, mock-treated with complete medium), a medium control (3 wells with medium used to subtract out signal generated by media conditions), and an air blank (1 well, for calibrating the plate reader).
(§4) Anticellular effects of the compounds for the adherent cell lines were assessed with neutral red dye. On the day of analysis, the media was removed from sample cell monolayers and replaced with 0.1 mL of neutral red solution (0.5% neutral red, HBSS:RPMI 1640 (1:1), 0.05 M HEPES, pH 7.2). After incubation of the samples at 37° C. for 1 hour the excess dye was removed with blotting and the monolayers were washed twice with 0.85% NaCl solution (0.1 mL per wash). The cell associated dye was extracted by adding 0.2 mL of a 0.1 M NaH2PO4:ethanol (1:1) solution/well followed by incubation for 1 hour at 35° C. The absorbency of neutral red in each monolayer was measured at 550 nm (620 nm reference beam) on a Denley Anthos 2001 microplate reader. The data were transferred via the ARCOM software capture program in Lotus 1-2-3 for processing.
(§5) In assays where technical difficulties due to crystalization of the neutral red occurred the crystal violet staining procedure was employed to measure the amount of cells were left on the plate. Crystal violet staining solution [0.5% crystal violet (w/v), 50% methanol (v/v), 45% saline (v/v), and 5% formalin (v/v)] were prepared on the day of staining. After the media was removed from the sample wells, two drops of crystal violet stain were added to each well and the samples were incubated at ambient temperature for 10 minutes. […]

[2] = system: COLO 205 cells; assay: IC50 assay, inhibition of cell proliferation and growth, COLO 205; assay type: cell-based, human; settings: COLO 205 colon adenocarcinoma cell line, neutral red or crystal violet, read-out: IC50 Concentrations, COLO 205
Method: as §1, §2, §3, §4, §5

[3] = system: M14 cells; assay: IC50 assay, inhibition of cell proliferation and growth, M14; assay type: cell-based, human; settings: M14 melanoma cell line, neutral red or crystal violet, read-out: IC50 Concentrations, M14
Method: as §1, §2, §3, §4, §5

[4] = system: P388 cells; assay: IC50 assay (XTT), inhibition of cell proliferation and growth, P388; assay type: cell-based; settings: P388 murine leukemia cell line, XTT dye conversion, read-out: IC50 Concentrations, P388
Method: as §1, §2, §3
(§6) Anticellular effects of the murine leukemia cell lines were assessed with the XTT dye conversion assay which is more suited to suspension cultures. On the day of analysis XTT[2,3-bis(2-methoxy-4-nitro-5-sulfophenyl)-5-[(phenylamino)carbenyl]-2H-tetrazolium hydroxide, inner salt, sodium salt (Sigma)] was weighed out and dissolved at 1 mg/mL in media. PMS (phenazine methosulfate) was prepared at 5 mM in PBS (phosphate buffered saline) and stored as a stock solution 4° C. The PMS was mixed with dissolved XTT to a final concentration of 0.025 mM. Sample wells were treated with 50 μL of the XTT solution and the plates were incubated for four hours at 37° C. to allow for conversion into the liquid soluble formazan product. After the incubation period the reaction was stopped by adding 10 μL of 10% SDS solution per well and the wells contents of each plate were mixed by agitation. The absorbancy of formazan in each monolayer was measured at 450 nm (620 nm reference beam) on a Denley Anthos 2001 microplate reader. The data were transferred via the ARCOM software capture program into Lotus 1-2-3 for processing.
(§7) Using the procedures described above, concentrations of the Example compounds necessary to inhibit cell proliferation and growth by 50% (1C50 values) were determined in the test cell lines.

[5] = system: SK-OV-3 cells; assay: IC50 assay, inhibition of cell proliferation and growth, SK-OV-3; assay type: cell-based, human; settings: SK-OV-3 ovarian adenocarcinoma cell line, neutral red or crystal violet, read-out: IC50 Concentrations, SK-OV-3
Method: as §1, §2, §3, §4, §5

[6] = system: RPMI 8226 cells; assay: IC50 assay, inhibition of cell proliferation and growth, RPMI 8226; assay type: cell-based; settings: Homo sapiens; RPMI 8226 myeloma cell line; read-out: IC50 Concentrations, RPM 18226
Method: as §1, §2, §3, §7

[7] = system: L1210 cells; assay: IC50 assay (XTT), inhibition of cell proliferation and growth, L1210; assay type: cell-based; settings: L1210 murine leukemia cell line, XTT dye conversion, read-out: IC50 Concentrations, L1210
Method: as §1, §2, §3, §6, §7

[8] = system: B16 cells; assay: IC50 assay, inhibition of cell proliferation and growth, B16; assay type: cell-based; settings: B16 murine melanoma cell line, neutral red or crystal violet, read-out: IC50 Concentrations, B16
Method: as §1, §2, §3, §4, §5

[9] = system: A549 cells; assay: IC50 assay, inhibition of cell proliferation and growth, A549; assay type: cell-based, human; settings: A549 bronchogenic cell line, neutral red or crystal violet, read-out: IC50 Concentrations, A 549
Method: as §1, §2, §3, §4, §5

[10] = system: SK-MEL-5 cells; assay: IC50 assay, inhibition of cell proliferation and growth, SK-MEL-5; assay type: cell-based, human; settings: SK-MEL-5 melanoma cell line, neutral red or crystal violet, read-out: IC50 Concentrations, SK MEL-5
Method: as §1, §2, §3, §4, §5

Cc1ccc(-c2csc(NC(=O)c3cc([N+](=O)[O-])ccc3I)n2)cc1 [Ref. No. 19, 2(2′-Iodo-5′-Nitro-Benzamido)-4-tolyl-Thiazole]
IC50 ([1]; Homo sapiens): 35.5 µM | IC50 ([2]; Homo sapiens): 18.2 µM | IC50 ([3]; Homo sapiens): 14.4 µM | IC50 ([4]; Mus musculus): 2.43 µM | IC50 ([5]; Homo sapiens): 33.2 µM | IC50 [6]: 11.8 µM | IC50 ([7]; Mus musculus): 13.5 µM | IC50 ([8]; Mus musculus): 5.15 µM | IC50 ([9]; Homo sapiens): 163 µM | melting point: 244 to 248 °C | IC50 ([10]; Homo sapiens): 51.3 µM

N-(4′-Pyridyl)-2-Iodo-5-Nitrophenyl Hydrazide [Ref. No. 10]
IC50 [1]: > 500 µM | IC50 [2]: 441 µM | IC50 [3]: > 500 µM | IC50 [4]: > 18.5 µM | IC50 [5]: 361 µM | IC50 [7]: > 18.5 µM | IC50 [8]: 301 µM | IC50 [9]: > 500 µM | IC50 [10]: > 500 µM

O=C(NC1=NCCS1)c1cc([N+](=O)[O-])ccc1I [Ref. No. 23, 2-(2′-Iodo-5′-Nitro-Benzamido)-2-Thiazoline]
IC50 ([1]; Homo sapiens): 162 µM | IC50 ([2]; Homo sapiens): 81.9 µM | IC50 ([3]; Homo sapiens): 150 µM | IC50 ([4]; Mus musculus): 353 µM | IC50 ([5]; Homo sapiens): > 500 µM | IC50 [6]: 237 µM | IC50 ([7]; Mus musculus): > 500 µM | IC50 ([8]; Mus musculus): 129 µM | IC50 ([9]; Homo sapiens): > 500 µM | melting point: 176 to 179 °C | IC50 ([10]; Homo sapiens): 125 µM

O=C(Nc1nnc(C(F)(F)F)s1)c1cc([N+](=O)[O-])ccc1I [Ref. No. 18]
IC50 ([1]; Homo sapiens): 24 µM | IC50 ([2]; Homo sapiens): 41.3 µM | IC50 ([3]; Homo sapiens): 27.3 µM | IC50 ([4]; Mus musculus): 12.8 µM | IC50 ([5]; Homo sapiens): 73 µM | IC50 [6]: 16.7 µM | IC50 ([7]; Mus musculus): 28.4 µM | IC50 ([8]; Mus musculus): 20.8 µM | IC50 ([9]; Homo sapiens): 15.7 µM | melting point: 219 to 221 °C | IC50 ([10]; Homo sapiens): 28.8 µM

Cc1cnc(NC(=O)c2cc([N+](=O)[O-])ccc2I)s1 [Ref. No. 22, 2(2′-Iodo-5′-Nitro-Benzamido)-5-Methyl-Thiazole]
IC50 ([1]; Homo sapiens): 14.8 µM | IC50 ([2]; Homo sapiens): 13.5 µM | IC50 ([3]; Homo sapiens): 14.5 µM | IC50 ([4]; Mus musculus): 3.64 µM | IC50 ([5]; Homo sapiens): 16.1 µM | IC50 [6]: 12.7 µM | IC50 ([7]; Mus musculus): 12.8 µM | IC50 ([8]; Mus musculus): 6.2 µM | IC50 ([9]; Homo sapiens): 45.2 µM | IC50 ([10]; Homo sapiens): 15.3 µM

CCOC(=O)c1sc(NC(=O)c2cc([N+](=O)[O-])ccc2I)nc1C [Ref. No. 16]
IC50 ([1]; Homo sapiens): 34.3 µM | IC50 ([2]; Homo sapiens): 31.2 µM | IC50 ([3]; Homo sapiens): 37.3 µM | IC50 ([4]; Mus musculus): 11.2 µM | IC50 ([5]; Homo sapiens): 41.2 µM | IC50 [6]: 10.6 µM | IC50 ([7]; Mus musculus): 41.1 µM | IC50 ([8]; Mus musculus): 7.93 µM | IC50 ([9]; Homo sapiens): 30.1 µM | melting point: 211 to 212 °C | IC50 ([10]; Homo sapiens): 41.7 µM

Cc1csc(NC(=O)c2cc([N+](=O)[O-])ccc2I)n1 [Ref. No. 21, 2-(2′-Iodo-5′-Nitro-Benzamido)-4-Methyl-Thiazole]
IC50 ([1]; Homo sapiens): 12.5 µM | IC50 ([2]; Homo sapiens): 5.59 µM | IC50 ([3]; Homo sapiens): 13.2 µM | IC50 ([4]; Mus musculus): 3.44 µM | IC50 ([5]; Homo sapiens): 15.7 µM | IC50 [6]: 3.33 µM | IC50 ([7]; Mus musculus): 12.8 µM | IC50 ([8]; Mus musculus): 5.13 µM | IC50 ([9]; Homo sapiens): 43.7 µM | IC50 ([10]; Homo sapiens): 15 µM
